The source of these data is US10736883B2, “Triazole furan compounds as agonists of the APJ receptor” (AMGEN INC., priority 2016, dated 2020).

APJ receptor, sequence (P35414 whole entry): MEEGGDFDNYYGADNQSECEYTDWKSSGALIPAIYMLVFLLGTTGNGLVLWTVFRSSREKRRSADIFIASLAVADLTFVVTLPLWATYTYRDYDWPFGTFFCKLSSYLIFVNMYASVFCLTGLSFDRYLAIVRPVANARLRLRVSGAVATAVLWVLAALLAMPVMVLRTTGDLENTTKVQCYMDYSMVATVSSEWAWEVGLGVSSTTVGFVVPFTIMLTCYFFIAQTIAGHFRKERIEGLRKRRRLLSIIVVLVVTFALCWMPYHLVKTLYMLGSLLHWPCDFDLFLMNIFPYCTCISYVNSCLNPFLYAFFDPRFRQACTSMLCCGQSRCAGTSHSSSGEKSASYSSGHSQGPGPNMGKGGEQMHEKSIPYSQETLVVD

In the experiment the target is APJ receptor (Homo sapiens (Human), UniProt P35414). The experiment is described as follows: [35S]GTPγS binding assay on membranes from CHO cells stably expressing human APJ receptor. Format: biochemical. Particulars: membranes of CHO cells stably expressing human APJ receptor, means of several independent experiments, read-out: Activity hAPJ SPA EC50 IP. Summed up:
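EC50 values were obtained by non-linear regression of [35S]GTPγS (0.2 nM) binding after 90 min at RT, with nonspecific binding defined by 100 μM GTPγS. Reactions used human APJ–expressing CHO cell membranes on WGA PS beads in HEPES pH 7.5 buffer with 5 mM MgCl2, 200 mM NaCl, 3 μM GDP and 0.1% BSA.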
Consider `COc1cccc(OC)c1-n1c(NS(=O)(=O)[C@H](C)Cc2cnc(C)cn2)nnc1-c1ccc(C)o1` (single isomer, unassigned) [Example 24.0, (2R)—N-(4-(2,6-dimethoxyphenyl)-5-(5-methyl-2-furanyl)-4H-1,2,4-triazol-3-yl)-1-(5-methyl-2-pyrazinyl)-2-propanesulfonamide or (2S)—N-(4-(2,6-dimethoxyphenyl)-5-(5-methyl-2-furanyl)-4H-1,2,4-triazol-3-yl)-1-(5-methyl-2-pyrazinyl)-2-propanesulfonamide], for which the EC50 (usually the concentration giving half of the maximal effect) is 0.36 nM.
With `COc1cccc(OC)c1-n1c(NS(=O)(=O)[C@H](C)Cc2ccc(F)cn2)nnc1-c1ccco1` (single isomer, unassigned) [Example 25.0, (2R)—N-(4-(2,6-dimethoxyphenyl)-5-(2-furanyl)-4H-1,2,4-triazol-3-yl)-1-(5-fluoro-2-pyridinyl)-2-propanesulfonamide or (2S)—N-(4-(2,6-dimethoxyphenyl)-5-(2-furanyl)-4H-1,2,4-triazol-3-yl)-1-(5-fluoro-2-pyridinyl)-2-propanesulfonamide] the figure was 0.37 nM; with `COc1cccc(OC)c1-n1c(NS(=O)(=O)[C@H](C)Cc2ccc(C#N)cn2)nnc1-c1ccco1` (single isomer, unassigned) [Example 30.0, (2R)-1-(5-cyano-2-pyridinyl)-N-(4-(2,6-dimethoxyphenyl)-5-(2-furanyl)-4H-1,2,4-triazol-3-yl)-2-propanesulfonamide or (2S)-1-(5-cyano-2-pyridinyl)-N-(4-(2,6-dimethoxyphenyl)-5-(2-furanyl)-4H-1,2,4-triazol-3-yl)-2-propanesulfonamide], 1.2 nM.
With `COc1cccc(OC)c1-n1c(NS(=O)(=O)[C@H](C)Cc2ccc(C)nn2)nnc1-c1ccc(C)o1` (single isomer, unassigned) [Example 31.0, (2R)—N-(4-(2,6-dimethoxyphenyl)-5-(5-methyl-2-furanyl)-4H-1,2,4-triazol-3-yl)-1-(6-methyl-3-pyridazinyl)-2-propanesulfonamide or (2S)—N-(4-(2,6-dimethoxyphenyl)-5-(5-methyl-2-furanyl)-4H-1,2,4-triazol-3-yl)-1-(6-methyl-3-pyridazinyl)-2-propanesulfonamide] the figure was 1.9 nM; with `COc1cccc(OC)c1-n1c(NS(=O)(=O)[C@H](C)Cc2cnc(C)cn2)nnc1-c1ccco1` (single isomer, unassigned) [Example 32.0, (2R)—N-(4-(2,6-dimethoxyphenyl)-5-(2-furanyl)-4H-1,2,4-triazol-3-yl)-1-(5-methyl-2-pyrazinyl)-2-propanesulfonamide or (2S)—N-(4-(2,6-dimethoxyphenyl)-5-(2-furanyl)-4H-1,2,4-triazol-3-yl)-1-(5-methyl-2-pyrazinyl)-2-propanesulfonamide], 2.3 nM.
The value for `COc1cccc(OC)c1-n1c(NS(=O)(=O)[C@H](C)Cc2ccc(C#N)cn2)nnc1-c1ccc(C)o1` (single isomer, unassigned) [Example 33.0, (2R)-1-(5-cyano-2-pyridinyl)-N-(4-(2,6-dimethoxyphenyl)-5-(5-methyl-2-furanyl)-4H-1,2,4-triazol-3-yl)-2-propanesulfonamide or (2S)-1-(5-cyano-2-pyridinyl)-N-(4-(2,6-dimethoxyphenyl)-5-(5-methyl-2-furanyl)-4H-1,2,4-triazol-3-yl)-2-propanesulfonamide] was 2.4 nM.
Consider `COc1cccc(OC)c1-n1c(NS(=O)(=O)[C@H](C)Cc2ncc(Br)cn2)nnc1-c1ccco1` (single isomer, unassigned) [Example 36.0, (2R)-1-(5-bromo-2-pyrimidinyl)-N-(4-(2,6-dimethoxyphenyl)-5-(2-furanyl)-4H-1,2,4-triazol-3-yl)-2-propanesulfonamide or (2S)-1-(5-bromo-2-pyrimidinyl)-N-(4-(2,6-dimethoxyphenyl)-5-(2-furanyl)-4H-1,2,4-triazol-3-yl)-2-propanesulfonamide], for which the EC50 was 3.5 nM.
With `COc1cccc(OC)c1-n1c(NS(=O)(=O)[C@H](C)Cc2ncc(Cl)cn2)nnc1-c1ccco1` (single isomer, unassigned) [Example 37.0, (2R)-1-(5-chloro-2-pyrimidinyl)-N-(4-(2,6-dimethoxyphenyl)-5-(2-furanyl)-4H-1,2,4-triazol-3-yl)-2-propanesulfonamide or (2S)-1-(5-chloro-2-pyrimidinyl)-N-(4-(2,6-dimethoxyphenyl)-5-(2-furanyl)-4H-1,2,4-triazol-3-yl)-2-propanesulfonamide] the figure was 3.6 nM; with `COc1cccc(OC)c1-n1c(NS(=O)(=O)[C@@H](C)Cc2cnc(C)cn2)nnc1-c1ccc(C)o1` (single isomer, unassigned) [Example 38.0, (2S)—N-(4-(2,6-dimethoxyphenyl)-5-(5-methyl-2-furanyl)-4H-1,2,4-triazol-3-yl)-1-(5-methyl-2-pyrazinyl)-2-propanesulfonamide or (2R)—N-(4-(2,6-dimethoxyphenyl)-5-(5-methyl-2-furanyl)-4H-1,2,4-triazol-3-yl)-1-(5-methyl-2-pyrazinyl)-2-propanesulfonamide], 3.8 nM.
With `COc1cccc(OC)c1-n1c(NS(=O)(=O)[C@@H](C)[C@H](O)c2ccc(C#N)cn2)nnc1-c1ccc(C)o1` (single isomer, unassigned) [Example 40.0, (1R,2S)-1-(5-cyano-2-pyridinyl)-N-(4-(2,6-dimethoxyphenyl)-5-(5-methyl-2-furanyl)-4H-1,2,4-triazol-3-yl)-1-hydroxy-2-propanesulfonamide or (1S,2R)-1-(5-cyano-2-pyridinyl)-N-(4-(2,6-dimethoxyphenyl)-5-(5-methyl-2-furanyl)-4H-1,2,4-triazol-3-yl)-1-hydroxy-2-propanesulfonamide] the figure was 11 nM; with `COc1cccc(OC)c1-n1c(NS(=O)(=O)[C@H](C)Cc2ccc(C)nn2)nnc1-c1ccco1` (single isomer, unassigned) [Example 42.0, (2R)—N-(4-(2,6-dimethoxyphenyl)-5-(2-furanyl)-4H-1,2,4-triazol-3-yl)-1-(6-methyl-3-pyridazinyl)-2-propanesulfonamide or (2S)—N-(4-(2,6-dimethoxyphenyl)-5-(2-furanyl)-4H-1,2,4-triazol-3-yl)-1-(6-methyl-3-pyridazinyl)-2-propanesulfonamide], 12 nM; with `COc1cccc(OC)c1-n1c(NS(=O)(=O)[C@H](C)Cc2ccc(C)nn2)nnc1-c1ccc(C)o1` (single isomer, unassigned) [Example 43.0, (2R)—N-(4-(2,6-dimethoxyphenyl)-5-(5-methyl-2-furanyl)-4H-1,2,4-triazol-3-yl)-1-(6-methyl-3-pyridazinyl)-2-propanesulfonamide or (2S)—N-(4-(2,6-dimethoxyphenyl)-5-(5-methyl-2-furanyl)-4H-1,2,4-triazol-3-yl)-1-(6-methyl-3-pyridazinyl)-2-propanesulfonamide], 25 nM.
With `COc1cccc(OC)c1-n1c(NS(=O)(=O)[C@H](C)Cc2ccncn2)nnc1-c1ccco1` (single isomer, unassigned) [Example 44.0, (2R)—N-(4-(2,6-dimethoxyphenyl)-5-(2-furanyl)-4H-1,2,4-triazol-3-yl)-1-(4-pyrimidinyl)-2-propanesulfonamide or (2S)—N-(4-(2,6-dimethoxyphenyl)-5-(2-furanyl)-4H-1,2,4-triazol-3-yl)-1-(4-pyrimidinyl)-2-propanesulfonamide], the EC50 turned out to be 44 nM.
